This is an account of results in patent US8101745B2, “Lung-targeted drugs” (priority 2004, dated 2012).

In general, EC50 refers to the concentration at which the effect is half-maximal.

Series [1] deals with Vaccinia Copenhagen. It counts as cell-based.
Series [2] relates to Cowpox Brighton. The class given is cell-based.
The subject of series [3] is ectromelia virus. The settings on record: mouse, in vivo, po, cited from earlier work.
Series [4] has as its system Vaccinia Copenhagen. The settings on record: cited from earlier work; for EC50: Vaccinia Copenhagen, effective dose 50%.
The test system of series [5] is Cowpox Brighton. The settings on record: cited from earlier work.
The conditions of series [6]: toxic dose 50%; read-out: TC50 (the source's name); cited from earlier work.
For series [7] the following is noted: in vivo; cited from earlier work.
A short description of series [8]: Oral pharmacokinetics of 14C-labeled drug, liver and lung levels in mice. The settings on record: for AUC 14C-Drug Liver / AUC 14C-Drug Lung / Ratio Lung/Liver / Ratio Liver/Lung: 10 mg/kg single oral dose, 0 to 72 hours; for Ratio Lung/Liver / Ratio Liver/Lung: ratio of AUC.
Series [9] concerns ectromelia virus. On the set-up: species or system Female A/NCR mice. The settings on record: mouse, in vivo, po.

Values joined by “and” are separate entries in the source; they are usually repeats but may differ in a detail not shown here. Equal values may be shown once. Read-outs that look alike come from different tables or passages of the source.

With `Nc1ccn(C[C@@H](CO)OCP(=O)(O)O)c(=O)n1` [CDV, cidofovir], the SI in series [1] is listed as greater than 10; in series [2], greater than 7.5. In addition, the Lung titer in series [3] (10 mg/kg) is 3 × 10^6 pfu/ml. Moreover, the Mortality in series [3] (10 mg/kg) is on record as 100%. In series [3] (10 mg/kg), the Spleen titer is recorded as 3 × 10^6 pfu/ml. Besides, the EC50 in series [4] is 31 µM; in [5], 42 µM. Besides, in series [6], the CC50 was greater than 317 µM. Moreover, the oral bioavailability in series [7] is reported as less than 6%.
`CCCCCCCCCCCCCCCCOCCCOP(=O)(O)CO[C@H](CO)Cn1ccc(N)nc1=O` [HDP-CDV, hexadecyloxypropyl-CDV]: the SI in series [1] is 48. This molecule showed an SI in series [2] of 58. Moreover, in series [3] (10 mg/kg), the Liver titer is on record as <10^2 pfu/ml, the Lung titer is 5 × 10^4 pfu/ml, the Mortality was 0% and the Spleen titer is recorded as <10^2 pfu/ml. The EC50 in series [4] was 0.6 µM. The EC50 in [5] was 0.5 µM. Also, in [6], the CC50 is 29 µM. Further, in series [8] (mice), the “AUC 14C-Drug Liver” value stood at 1367 nmol · gm · hrs and the “AUC 14C-Drug Lung” value was found to be 49 nmol · gm · hrs. In addition, the “Ratio Lung/Liver” value in [8] came out at 0.04. In [8] (10 mg/kg), the “Ratio Liver/Lung” value was found to be 27.9.
In [1], `CCCCCCCCCCCCCCCCCCOC[C@H](COP(=O)(O)CO[C@H](CO)Cn1ccc(N)nc1=O)OCc1ccccc1` [ODBG-CDV, 1-O-Octadecyl-2-O-benzyl-sn-glycero-3-cidofovir] registered an SI of 118. In [2], this molecule gave an SI of 157. In series [9], the “Mortality day 21” value is 2/10 and 0/10; the protection from death result is given as “provides protection from death”. Besides, the “Mean time to death” value in series [9] (2 mg/kg/day) turned out to be 13.0 ± 1.4. Further, the EC50 in [4] is 0.4 µM. Further, in [4] (in words), the “activity against vaccinia virus in vitro” value is listed as “highly active”. In addition, in [5], the EC50 is 0.3 µM and the “activity against cowpox virus in vitro” value is listed as “highly active”. Moreover, the CC50 in series [6] was 47 µM. In [8] (10 mg/kg oral, mice, over 72 hours, compared with HDP-CDV or ODE-CDV (FIG. 1)), the “Lung levels of 14C-labeled drug” value is “much higher”. Also, the “liver levels of 14C-labeled drug” value in [8] (10 mg/kg oral, mice, over 72 hours, compared with HDP-CDV or ODE-CDV (FIG. 2)) is on record as “lower”. Further, in series [8] (mice), the “AUC 14C-Drug Liver” value came out at 318 nmol · gm · hrs and the “AUC 14C-Drug Lung” value worked out at 581 nmol · gm · hrs. For the same molecule, the “lung area under curve relative to alkoxyalkyl derivatives of CDV” value in series [8] (given orally, versus non lung-targeted alkoxyalkyl derivatives) is recorded as 10 fold. In [8], the “Ratio Liver/Lung” value is recorded as 0.55 and the “Ratio Lung/Liver” value is reported as 1.82.
On to `CCCCCCCCCCCCCCCCCCOCCOP(=O)(O)CO[C@H](CO)Cn1ccc(N)nc1=O` [ODE-CDV, octadecyloxyethyl-CDV], for which, in series [1], the SI worked out at 105. Further, the SI in series [2] was 105. In series [3] (5 mg/kg), the Liver titer is on record as <10^2 pfu/ml, the Lung titer is 3 × 10^5 pfu/ml, the Mortality is listed as 0% and the Spleen titer is <10^2 pfu/ml. For the same molecule, in [4], the EC50 was 0.6 µM. In [5], the EC50 was 0.5 µM. Also, the CC50 in series [6] was 21 µM. In series [8] (mice), the “AUC 14C-Drug Liver” value worked out at 1215 nmol · gm · hrs and the “AUC 14C-Drug Lung” value is recorded as 60 nmol · gm · hrs. Also, the “Ratio Lung/Liver” value in [8] came out at 0.05. Moreover, the “Ratio Liver/Lung” value in series [8] (10 mg/kg) turned out to be 20.3.
